Columns and labels:
[1] = Crystal form stability on standing at room temperature, rechecked by powder X-ray diffraction (Test Example 1); type: physicochemical; conditions: allowed to stand for 8 weeks at room temperature
Description: In addition, the measurement of powder X-ray diffraction (reflection method) was performed by pulverizing a sample in an agate mortar, taking an appropriate amount of the sample into a sample plate, and measuring a diffraction peak such that a diffraction angle 20 includes a range of 5° to 40°. The X-ray to be radiated was a copper Ka ray (CuKα ray), and the tube voltage was set to 50 kV, the tube current was set to 1 mA, and the step time was set to 120 seconds. The thermal analysis was performed by taking 2 mg of the sample into an aluminum pan and measuring differential scanning calorimetry (DSC) under a condition of a heating rate of 5° C./min. For the measurement of powder X-ray diffraction (reflection method), D8 DISCOVER manufactured by Bruker AXS was used.
The type II crystal of (R)—N-(3-{2,2,2-trifluoro-1-[6-(2-methyl-2H-1,2,3-triazol-4-yl)pyridin-3-yl]ethoxy}quinoxalin-2-yl) propane-1-sulfonamide obtained in step 3 of Example 1 was allowed to stand for 8 weeks at room temperature.

[2] = Long-term storage stability of crystal at 25° C. and 60% RH (Test Example 1); type: physicochemical; conditions: 25° C. and 60% RH for 5 years

Compound: CCCS(=O)(=O)Nc1nc2ccccc2nc1O[C@H](c1ccc(-c2cnn(C)n2)nc1)C(F)(F)F [type II crystal, (R)—N-(3-{2,2,2-trifluoro-1-[6-(2-methyl-2H-1,2,3-triazol-4-yl)pyridin-3-yl]ethoxy}quinoxalin-2-yl) propane-1-sulfonamide]
- crystal form after standing (powder X-ray diffraction) [1]: transition to a mixed crystal of the type III crystal and the type II crystal

Compound: CCCS(=O)(=O)Nc1nc2ccccc2nc1O[C@H](c1ccc(-c2cnn(C)n2)nc1)C(F)(F)F [type III crystal, (R)—N-(3-{2,2,2-trifluoro-1-[6-(2-methyl-2H-1,2,3-triazol-4-yl)pyridin-3-yl]ethoxy}quinoxalin-2-yl)propane-1-sulfonamide]
- stability (properties, related substances, optical isomers, content, powder X-ray diffraction pattern) [2]: no changes in the properties, related substances, optical isomers, content, or powder X-ray diffraction pattern
